From patent publication US8759334B2, “Compounds useful for the treatment of metabolic and inflammatory diseases” (Galapagos NV, priority 2011, dated 2014)

What was measured:
GPR43 [1] = target: T1, GPR43 (Homo sapiens, UniProt O15552); assay: Calcium mobilization assay with probenecid; format: cell-based; conditions: GPR43 stably expressing cells; triggered with sodium acetate at EC80; 2.5 mM probenecid; read-out: GPR43 assay with probenicid IC50
T1 construct: expressed in transfected cells
T1 sequence (O15552 1-330): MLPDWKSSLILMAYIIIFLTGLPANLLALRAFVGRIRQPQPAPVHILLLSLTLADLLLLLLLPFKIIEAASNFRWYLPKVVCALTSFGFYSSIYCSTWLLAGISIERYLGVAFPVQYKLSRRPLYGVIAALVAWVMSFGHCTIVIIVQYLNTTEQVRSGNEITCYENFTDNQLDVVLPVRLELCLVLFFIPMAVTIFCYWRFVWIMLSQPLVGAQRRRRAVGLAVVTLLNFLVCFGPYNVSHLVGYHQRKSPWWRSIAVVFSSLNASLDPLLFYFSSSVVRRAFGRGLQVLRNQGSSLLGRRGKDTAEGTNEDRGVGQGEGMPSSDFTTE
Summary of the method: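 […] being added at rising concentrations to a GPR43 stable line. Before this, cells were dye-loaded (Calcium 4 with 2.5 mM probenecid) for 2 h at 37 °C after overnight plating.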

GPR43 [2] = target: T1, GPR43; assay: Calcium mobilization assay without probenecid; format: cell-based; conditions: GPR43 stably expressing cells, triggered with sodium acetate at EC80, read-out: GPR43 assay without probenicid IC50
Method: The following assay can be used for determination of GPR43 activation. The assay measures intracellular calcium release induced by activation of GPR43. On day 1, GPR43 stably expressing cells were detached with mild trypsinization (Trypsin, 0.25% with EDTA 4Na, 5× diluted in PBS) centrifuged at 1000 rpm for 5 min and resuspended at 6.000 cells/25 μL medium (DMEM supplemented with 10% FBS, 10 μg/mL puromycin and 1% Pen/Strep). The cells were distributed in poly-D-lysine coated 384 well plates (black with clear bottom, 25 μL/well) and incubated overnight at 37° C. 10% CO2. On day 2, 25 μL of a fluorescent Ca^2+ indicator (Calcium 4 assay; Molecular Devices) was added on top of the cells and incubated for 2 h at 37° C. Subsequently, compounds at increasing concentration (10 μL/well) were added to the plate and incubated for 15 min at 37° C. Finally the cells were triggered with sodium acetate at EC80 concentration (concentration which gives 80% of the activity of the GPR43) and the Ca-flux was measured simultaneously to the trigger injection on a fluorescence plate reader (FlexStation3), this measures the antagonist activity of the compounds. To measure agonist activity of the compounds, compound was added to the well and the Ca-flux was measured simultaneously to the injection of compound.

| SMILES | IC50 (GPR43 [1]) [nM] | IC50 (GPR43 [2]) [nM] |
| --- | --- | --- |
| CC1(C(=O)NCc2ccc(Cl)cc2)CCN1C(=O)Oc1ccc(Cl)cc1 (stereo not drawn) [Compound 2, 2-(4-Chloro-benzylcarbamoyl)-2-methyl-azetidine-1-carboxylic acid 4-chloro-phenyl ester] | > 1000 | > 1000 |
| CC1(C(=O)Nc2ccc(Cl)cc2)CCN1C(=O)Cc1ccc(Cl)cc1Cl (stereo not drawn) [Compound 4, 1-[2-(2,4-Dichloro-phenyl)-acetyl]-2-methyl-azetidine-2-carboxylic acid (4-chloro-phenyl)-amide] | > 1000 | > 1000 |
| Cc1cc(C)cc(CC(=O)N2CCC2(C)C(=O)N(C)Cc2cccc(Cl)c2)c1 (stereo not drawn) [Compound 5, 1-[2-(3,5-Dimethyl-phenyl)-acetyl]-2-methyl-azetidine-2-carboxylic acid (3-chloro-benzyl)-methyl-amide] | > 1000 | > 1000 |
| Cc1ccc(CN(C)C(=O)C2(C)CCN2C(=O)Cc2cc(C)cc(C)c2)cc1 (stereo not drawn) [Compound 6, 1-[2-(3,5-Dimethyl-phenyl)-acetyl]-2-methyl-azetidine-2-carboxylic acid methyl-(4-methyl-benzyl)-amide] | > 1000 | 501 to 1000 |
| Cc1cc(C)cc(CC(=O)N2CCC2(C)C(=O)N(C)Cc2ccc(C(F)(F)F)cc2)c1 (stereo not drawn) [Compound 7, 1-[2-(3,5-Dimethyl-phenyl)-acetyl]-2-methyl-azetidine-2-carboxylic acid methyl-(4-trifluoromethyl-benzyl)-amide] | 101 to 500 | 101 to 500 |
| CN(Cc1ccc(Cl)cc1)C(=O)C1(C)CCN1C(=O)Cc1ccccc1Cl (stereo not drawn) [Compound 9, 1-[2-(2-Chloro-phenyl)-acetyl]-2-methyl-azetidine-2-carboxylic acid (4-chloro-benzyl)-methyl-amide] | > 1000 | > 1000 |
| CN(Cc1ccc(Cl)cc1)C(=O)C1(C)CCN1C(=O)Cc1cccc(Cl)c1 (stereo not drawn) [Compound 10, 1-[2-(3-Chloro-phenyl)-acetyl]-2-methyl-azetidine-2-carboxylic acid (4-chloro-benzyl)-methyl-amide] | > 1000 | > 1000 |
| CN(Cc1ccc(Cl)cc1)C(=O)C1(C)CCN1C(=O)Cc1ccc(Cl)cc1 (stereo not drawn) [Compound 11] | > 1000 | > 1000 |
| CN(Cc1ccc(Cl)cc1)C(=O)C1(C)CCN1C(=O)Cc1ccc(F)c(F)c1 (stereo not drawn) [Compound 12, 1-[2-(3,4-Difluoro-phenyl)-acetyl]-2-methyl-azetidine-2-carboxylic acid (4-chloro-benzyl)-methyl-amide] | > 1000 | > 1000 |
| CN(Cc1ccc(Cl)cc1)C(=O)C1(C)CCN1C(=O)Cc1ccc(-c2ccc(F)cc2)cc1 (stereo not drawn) [Compound 15, 1-[2-(4′-Fluoro-biphenyl-4-yl)-acetyl]-2-methyl-azetidine-2-carboxylic acid (4-chloro-benzyl)-methyl-amide] | > 1000 | > 1000 |
| CN(Cc1ccc(Cl)cc1)C(=O)C1(C)CCN1C(=O)Cc1ccccc1OCc1ccccc1 (stereo not drawn) [Compound 16, 1-[2-(2-Benzyloxy-phenyl)-acetyl]-2-methyl-azetidine-2-carboxylic acid (4-chloro-benzyl)-methyl-amide] | > 1000 | > 1000 |
| CN(Cc1ccc(Cl)cc1)C(=O)C1(C)CCN1C(=O)Cc1ccccc1I (stereo not drawn) [Compound 17, 1-[2-(2-Iodo-phenyl)-acetyl]-2-methyl-azetidine-2-carboxylic acid (4-chloro-benzyl)-methyl-amide] | > 1000 | > 1000 |
| CN(Cc1ccc(Cl)cc1)C(=O)C1(C)CCN1C(=O)Cc1ccc(Cl)c(Cl)c1 (stereo not drawn) [Compound 18, 1-[2-(3,4-Dichloro-phenyl)-acetyl]-2-methyl-azetidine-2-carboxylic acid (4-chloro-benzyl)-methyl-amide] | > 1000 | > 1000 |
| CN(Cc1ccc(Cl)cc1)C(=O)C1(C)CCN1C(=O)Cc1ccc(-c2ccccc2)cc1 (stereo not drawn) [Compound 20, 1-(2-Biphenyl-4-yl-acetyl)-2-methyl-azetidine-2-carboxylic acid (4-chloro-benzyl)-methyl-amide] | > 1000 | > 1000 |
| CN(Cc1ccc(Cl)cc1)C(=O)C1(C)CCN1C(=O)Cc1ccc(-c2cccc(Cl)c2)cc1 (stereo not drawn) [Compound 21, 1-[2-(3′-Chloro-biphenyl-4-yl)-acetyl]-2-methyl-azetidine-2-carboxylic acid (4-chloro-benzyl)-methyl-amide] | > 1000 | > 1000 |
| CN(Cc1ccc(Cl)cc1)C(=O)C1(C)CCN1C(=O)Cc1ccc(-c2cccc(C#N)c2)cc1 (stereo not drawn) [Compound 22, 1-[2-(3′-Cyano-biphenyl-4-yl)-acetyl]-2-methyl-azetidine-2-carboxylic acid (4-chloro-benzyl)-methyl-amide] | > 1000 | > 1000 |
| COc1ccc(-c2ccc(CC(=O)N3CCC3(C)C(=O)N(C)Cc3ccc(Cl)cc3)cc2)cc1 (stereo not drawn) [Compound 23, 1-[2-(4′-Methoxy-biphenyl-4-yl)-acetyl]-2-methyl-azetidine-2-carboxylic acid (4-chloro-benzyl)-methyl-amide] | > 1000 | > 1000 |
| CN(Cc1ccc(Cl)cc1)C(=O)C1(C)CCN1C(=O)Cc1ccc(-c2ccc(C#N)cc2)cc1 (stereo not drawn) [Compound 24, 1-[2-(4′-Cyano-biphenyl-4-yl)-acetyl]-2-methyl-azetidine-2-carboxylic acid (4-chloro-benzyl)-methyl-amide] | > 1000 | > 1000 |
| Cc1ccccc1-c1ccc(CC(=O)N2CCC2(C)C(=O)N(C)Cc2ccc(Cl)cc2)cc1 (stereo not drawn) [Compound 25, 2-Methyl-1-[2-(2′-methyl-biphenyl-4-yl)-acetyl]-azetidine-2-carboxylic acid (4-chloro-benzyl)-methyl-amide] | > 1000 | > 1000 |
| COC(=O)c1cccc(-c2ccc(CC(=O)N3CCC3(C)C(=O)N(C)Cc3ccc(Cl)cc3)cc2)c1 (stereo not drawn) [Compound 26, methyl 4′-(2-(2-((4-chlorobenzyl)(methyl)carbamoyl)-2-methylazetidin-1-yl)-2-oxoethyl)biphenyl-3-carboxylate] | > 1000 | > 1000 |
| CN(Cc1ccc(Cl)cc1)C(=O)C1(C)CCN1C(=O)Cc1cccc(-c2ccccc2)c1 (stereo not drawn) [Compound 27, 1-(2-Biphenyl-3-yl-acetyl)-2-methyl-azetidine-2-carboxylic acid (4-chloro-benzyl)-methyl-amide] | > 1000 | > 1000 |
| CN(Cc1ccc(Cl)cc1)C(=O)C1(C)CCN1C(=O)Cc1cccc(-c2ccccc2C(F)(F)F)c1 (stereo not drawn) [Compound 28, 2-Methyl-1-[2-(2′-trifluoromethyl-biphenyl-3-yl)-acetyl]-azetidine-2-carboxylic acid (4-chloro-benzyl)-methyl-amide] | > 1000 | > 1000 |
| CN(Cc1ccc(Cl)cc1)C(=O)C1(C)CCN1C(=O)Cc1cccc(-c2cccc(Cl)c2)c1 (stereo not drawn) [Compound 29, 1-[2-(3′-Chloro-biphenyl-3-yl)-acetyl]-2-methyl-azetidine-2-carboxylic acid (4-chloro-benzyl)-methyl-amide] | > 1000 | > 1000 |
| Cc1cc(C)cc(CC(=O)N2CCC2(C)C(=O)N(C)Cc2ccc(Br)cc2)c1 (stereo not drawn) [Compound 30, 1-[2-(3,5-Dimethyl-phenyl)-acetyl]-2-methyl-azetidine-2-carboxylic acid (4-bromo-benzyl)-methyl-amide] | > 1000 | > 1000 |
